Source: patent publication US8314068B2, “P2X7 inhibition of epithelial cancers and papillomas” (University Hospitals of Cleveland, priority 2009, dated 2012)

Assays:
[1] = tested on: human normal keratinocytes; experiment: Apoptosis in cultured human normal keratinocytes; format: cell-based; settings: BzATP 100 μM with ATP 1 μM or 250 μM
From the text: Primary cultures of human normal keratinocytes were generated from discarded foreskins. […] Apoptosis may be quantified in terms of percent solubilized DNA (Wang et al, 2004a), or by using the commercial cell-death detection ELISA kit (Roche Applied Science, Nutley, N.J.) (Feng et al, 2006).

[2] = tested on: DMBA/TPA-induced skin papillomas and squamous spindle-cell carcinomas; experiment: DMBA/TPA mouse skin papilloma and cancer model, 28 weeks (Experiment-4); format: in vivo

What does the source list for `Nc1ncnc2c1ncn2[C@@H]1O[C@H](COP(=O)(O)OP(=O)(O)OP(=O)(O)O)[C@@H](OC(=O)c2ccc(C(=O)c3ccccc3)cc2)[C@H]1O` [BzATP, 3′-O-(4-benzoylbenzoyl)adenosine triphosphate]?
combined pro-apoptotic effect of BzATP with ATP [1]: non-additive; inhibition of papilloma and skin cancer formation ([2]; 1 μg/cm^2 BzATP applied locally twice weekly): 50%; effect on P2X7 receptor expression in skin cancers ([2]; immunoreactivity in cross sections): did not effect P2X7 receptor expression in cancer cells; overall survival rates versus DMBA/TPA group ([2]; log-rank test): did not differ statistically; TUNEL staining in papillomas and cancer tissues versus DMBA/TPA group ([2]; mouse, in vivo): more intense; development of cancerous lesions (time-to-event) versus DMBA/TPA group ([2]; mouse, in vivo): significantly slower and lower; proportion of living animals with cancerous lesions >200 mm^3, difference to DMBA/TPA group ([2]; mouse, in vivo): did not reach statistical significance; proportion of living animals having a papilloma ([2]; week 5, DMBA/TPA+BzATP group): 48±12%; papillomas per animal (mean±SD) ([2]; week 10, DMBA/TPA+BzATP group): 1.2±0.4; mean total papillomas size per animal (mean±SD) ([2]; week 12, DMBA/TPA+BzATP group): 3.4±1.0 mm^3; proportion of animals with cancers ([2]; week 14, mice co-treated with BzATP): 50%; proportion of living animals with cancerous lesions ([2]; week 28, DMBA/TPA+BzATP group): 43±9%; proportion of living animals with cancerous lesions >10 mm^3 ([2]; week 28, DMBA/TPA+BzATP group): 16±4%; lowering of incidence of cancerous lesions ([2]; week 28, co-treated with BzATP): about 50%; lowering of incidence of papillomas ([2]; weeks 0-12, co-treated with BzATP): about 50%; effect on number of cancerous lesions per animal ([2]; weeks 14-28): little effect
